According to patent US6670401B2, “Polysubstituted indan-1-ol compounds, and methods for their preparation and use” (Aventis Pharma Deutschland GmbH, priority 2001, dated 2003):

Key:
[1] = tested on: female NMRI mice; experiment: Anorectic action: cumulative evaporated milk consumption after 24 h feed removal; assay type: in vivo, mouse; conditions: 30 mg/kg i.p.
Protocol: The activity of the compounds was assayed as follows:
The anorectic action was tested on female NMRI mice. After removal of feed for 24 hours, the preparation to be tested was administered intraperitoneally (i.p.) or by gavage (po). The animals were housed singly and, with free access to drinking water, they were offered evaporated milk 30 minutes after administration of the preparation. The consumption of evaporated milk was determined and the general behavior of the animals was monitored every half an hour for 7 hours. The measured milk consumption was compared to that of vehicle-treated control animals.

melting point: 148 °C
SMILES: CC1(O)c2ccc(Cl)cc2CC1(F)S(C)(=O)=O (stereo not drawn) [Example 1, 5-Chloro-2-fluoro-2-methanesulfonyl-1-methylindan-1-ol]
Reduction in cumulative milk consumption as % of the control ([1]; compared with vehicle-treated control animals): 25%
cumulative milk consumption by treated animals ([1]; milk offered 30 min after administration, monitored for 7 hours, N=4): 4/2.88 ml
